Laboratory results as given in EP0743064A1, “Leukotriene antagonists for use in the treatment or prevention of alzheimer's disease” (ELI LILLY AND COMPANY, priority 1995, dated 1996).
Counter-ions that a name gives are not always drawn.

Biological target: T1, binding of tritiated LTB4 to guinea pig lung membranes (Cavia porcellus, UniProt H0VYV8)
T1 construct: contained 25 mg of guinea pig lung membrane protein; from tissue; host or cells: guinea pig lung membranes
Experiment: biochemical
Method: The effectiveness of compounds of Formula I to inhibit the binding of tritiated LTB4 to guinea pig lung membranes was determined as follows.
[^3H]-LTB4 Radioligand Binding Assay in Guinea Pig Lung Membranes
The binding reaction was terminated by the addition of 1 mL ice cold wash buffer (25 mM Tris-HCl, pH 7.5) followed immediately by vacuum filtration over Whatman GF/C glass fiber filters using a Brandel (Gaithersburg, MD) 48 place harvester. The filters were washed three times with 1 mL of wash buffer. Retained radioactivity was determined by liquid scintillation counting at 50% counting efficiency using Ready Protein Plus cocktail (Beckman, Fullerton, CA). Nondisplaceable binding was determined in the presence of 1 mM LTB4 and was usually less than 10% of total binding. […] The data reported below is the mean -log Ki, otherwise known as the pKi, for n experiments.

T1 sequence (H0VYV8 1-348): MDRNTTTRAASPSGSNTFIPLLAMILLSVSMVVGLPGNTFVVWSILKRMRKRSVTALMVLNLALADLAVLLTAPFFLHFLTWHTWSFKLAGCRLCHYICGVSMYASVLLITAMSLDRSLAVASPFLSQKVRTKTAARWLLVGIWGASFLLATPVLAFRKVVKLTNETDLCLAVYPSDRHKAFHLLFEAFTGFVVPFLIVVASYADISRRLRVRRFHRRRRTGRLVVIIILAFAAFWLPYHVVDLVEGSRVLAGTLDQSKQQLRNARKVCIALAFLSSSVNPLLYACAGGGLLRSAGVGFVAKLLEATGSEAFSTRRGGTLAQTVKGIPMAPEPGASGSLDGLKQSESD

Row | SMILES | Ki [nM]
1 | CCCc1c(OCCCOc2cc(O)c(-c3ccccc3)cc2CC)cccc1Oc1ccccc1C(=O)O [Example 61, 2-[2-Propyl-3-[3-(2-ethyl-5-hydroxy-4-phenylphenoxy)-propoxy]phenoxy]benzoic acid sodium salt hemihydrate] | 14.1
2 | CCc1cc(-c2ccc(F)cc2)c(O)cc1OCCCCCC(c1ccccc1)c1nn[nH]n1 (centres unmarked) [Example 84, 1-Phenyl-1-(1H-tetrazol-5-yl)-6-(2-ethyl-4-(4-fluorophenyl)-5-hydroxyphenoxy)hexane] | 6.31
3 | CCc1cc(-c2ccc(F)cc2)c(O)cc1OCCCCCC(c1ccc(OCC(=O)N(C)C)cc1)c1nn[nH]n1 (centres unmarked) [Example 86, 1-(4-(Dimethylaminocarbonylmethoxy)phenyl)-1-(1H-tetrazol-5-yl)-6-(2-ethyl-4-(4-fluorophenyl)-5-hydroxyphenoxy)hexane] | 3.8
4 | CCc1cc(-c2ccc(C(F)(F)F)cc2)c(O)cc1OCCCCCC(C)(C)c1nn[nH]n1 [disodium salt] | 66.1
5 | CCc1cc(-c2cccc(N(C)C)c2)c(O)cc1OCCCCCC(C)(C)c1nn[nH]n1 [disodium salt] | 63.1
